ChEMBL document CHEMBL1201862, “PubChem BioAssay data set” (2004)
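Tested at 5 concentrations; 48 h exposure; 96-well plates; endpoints linearly interpolated, else capped at highest concentration. GI50 marks 50% less growth.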 Active and inactive are the calls of the source. No stated cut-off is given here; in the data, active = GI50 up to about 1.1 µM and inactive = higher.

Assays:
Test in all cases: NCI tumour cell line growth inhibition, 48 h
SW-620 = tested on: SW-620
CAKI-1 = tested on: CAKI-1
ACHN = tested on: ACHN
NCI/ADR-RES = tested on: NCI/ADR-RES
DU-145 = tested on: DU-145
M14 = tested on: M14
NCI-H23 = tested on: NCI-H23
SNB-19 = tested on: SNB-19
CCRF-CEM = tested on: CCRF-CEM
SNB-75 = tested on: SNB-75
UACC-257 = tested on: UACC-257
T47D = tested on: T47D
SN12C = tested on: SN12C
HCC 2998 = tested on: HCC 2998
MOLT-4 = tested on: MOLT-4
UACC-62 = tested on: UACC-62
BT-549 = tested on: BT-549
OVCAR-3 = tested on: OVCAR-3
A498 = tested on: A498

Compound: COc1cc(/C=C/C=C2\CC(C)C/C(=C\C=C\c3ccc(O)c(OC)c3)C2=O)ccc1O (stereo not given)
- GI50 (SW-620): 12.7 µM (inactive)
- GI50 (CAKI-1): 12.1 µM (inactive)
- GI50 (ACHN): 4.98 µM (inactive)
- GI50 (NCI/ADR-RES): 25.1 µM (inactive)
- GI50 (DU-145): 19.5 µM (inactive)
- GI50 (M14): 15.4 µM (inactive)
- GI50 (NCI-H23): 12.2 µM (inactive)
- GI50 (SNB-19): 23 µM (inactive)
- GI50 (CCRF-CEM): 1.14 µM (inactive)
- GI50 (SNB-75): 15.1 µM (inactive)
- GI50 (UACC-257): 20.2 µM (inactive)
- GI50 (T47D): 7.48 µM (inactive)
- GI50 (SN12C): 31.3 µM (inactive)
- GI50 (HCC 2998): 17.5 µM (inactive)
- GI50 (MOLT-4): 0.964 µM (active)
- GI50 (UACC-62): 11.9 µM (inactive)
- GI50 (BT-549): 8.61 µM (inactive)
- GI50 (OVCAR-3): 10.8 µM (inactive)

Compound: COc1ccc(C(=O)N2CCN(c3ccc4c(c3)OCC(=O)N4)CC2)cc1
- GI50 (SW-620): > 100 µM (inactive)
- GI50 (CAKI-1): > 100 µM (inactive)
- GI50 (ACHN): > 100 µM (inactive)
- GI50 (NCI/ADR-RES): > 100 µM (inactive)
- GI50 (DU-145): > 100 µM (inactive)
- GI50 (M14): > 100 µM (inactive)
- GI50 (NCI-H23): > 100 µM (inactive)
- GI50 (SNB-19): > 100 µM (inactive)
- GI50 (CCRF-CEM): > 100 µM (inactive)
- GI50 (SNB-75): > 100 µM (inactive)
- GI50 (UACC-257): > 100 µM (inactive)
- GI50 (T47D): > 100 µM (inactive)
- GI50 (SN12C): > 100 µM (inactive)
- GI50 (HCC 2998): > 100 µM (inactive)
- GI50 (MOLT-4): > 100 µM (inactive)
- GI50 (UACC-62): > 100 µM (inactive)
- GI50 (BT-549): > 100 µM (inactive)
- GI50 (OVCAR-3): > 100 µM (inactive)

Compound: CCOC(=O)c1c[nH]c(C(=O)C=[N+]=[N-])c1C1CCN(CC)C1=S (stereo not given)
- GI50 (SW-620): > 100 µM (inactive)
- GI50 (CAKI-1): > 100 µM (inactive)
- GI50 (ACHN): > 100 µM (inactive)
- GI50 (NCI/ADR-RES): > 100 µM (inactive)
- GI50 (DU-145): > 100 µM (inactive)
- GI50 (A498): > 100 µM (inactive)
- GI50 (M14): > 100 µM (inactive)
- GI50 (NCI-H23): 99.8 µM (inactive)
- GI50 (SNB-19): > 100 µM (inactive)
- GI50 (SNB-75): > 100 µM (inactive)
- GI50 (UACC-257): > 100 µM (inactive)
- GI50 (T47D): > 100 µM (inactive)
- GI50 (HCC 2998): > 100 µM (inactive)
- GI50 (MOLT-4): > 100 µM (inactive)
- GI50 (UACC-62): > 100 µM (inactive)
- GI50 (BT-549): > 100 µM (inactive)
- GI50 (OVCAR-3): 94 µM (inactive)

Compound: COc1cc(S(=O)(=O)N/N=C/C=C/c2ccccc2)c(OC)cc1NC(C)=O
- GI50 (SW-620): 25.4 µM (inactive)
- GI50 (CAKI-1): 16 µM (inactive)
- GI50 (ACHN): > 100 µM (inactive)
- GI50 (NCI/ADR-RES): 9.59 µM (inactive)
- GI50 (DU-145): 31.8 µM (inactive)
- GI50 (A498): > 100 µM (inactive)
- GI50 (M14): 21.9 µM (inactive)
- GI50 (NCI-H23): 41.8 µM (inactive)
- GI50 (SNB-19): > 100 µM (inactive)
- GI50 (CCRF-CEM): 69.5 µM (inactive)
- GI50 (SNB-75): > 100 µM (inactive)
- GI50 (UACC-257): 30.2 µM (inactive)
- GI50 (T47D): 69.5 µM (inactive)
- GI50 (SN12C): 51.9 µM (inactive)
- GI50 (UACC-62): 86.9 µM (inactive)
- GI50 (BT-549): 42.1 µM (inactive)
- GI50 (OVCAR-3): 40.7 µM (inactive)
